US11076595B2, “1-(n,n-disubstituted carbamoyl) 4-(substituted sulfonyl)triazolin-5-one derivative, 4-(n,n-disubstituted carbamoyl) 1-(substituted sulfonyl)triazolin-5-one derivative, and herbicide containing said derivative as active ingredient” (HOKKO CHEMICAL INDUSTRY CO., LTD., priority 2017, dated 2021)

Columns and labels:
Type in all cases: in vivo
Echinochloa crus-galli [1] = assay: Test Example 11: herbicidal effect test by soil treatment in paddy field; conditions: 120 g/10a active ingredient, 14 days after treatment
Summary of the method: (§1)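 Seeds were sown 0-1 cm deep in puddled, fertilised paddy soil in Wagner pots and kept under about 3 cm of flooding in a greenhouse. Diluted emulsifiable concentrate was added dropwise right after sowing at 120 g a.i. per 10 are. Suppression (%) came from dry weight versus untreated pots after 14 days, two replicates.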

Lindernia pyxidaria [2] = assay: as above; conditions: 120 g/10a active ingredient, 14 days after treatment
Summary of the method: as §1

Monochoria vaginalis [3] = assay: as above; conditions: 120 g/10a active ingredient, 14 days after treatment
Summary of the method: as §1

Scirpus juncoides [4] = assay: as above; conditions: 120 g/10a active ingredient, 14 days after treatment
Summary of the method: as §1

Echinochloa crus-galli [5] = assay: Test Example 12: herbicidal effect test by treatment during growing period in paddy field; conditions: 120 g/10a; treatment seven days after sowing in flooded paddy pot; assessed 14 days after treatment
Summary of the method: (§2)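 Read-out: weed suppression (%) = (1 − treated/untreated mean dry weight) × 100, scored 14 days after treatment with two replications. Pots held puddled paddy soil, 30 seeds per species sown 0–1 cm, flooded ~3 cm. Post-emergence dropwise water application at 7 days after sowing, 120 g a.i./10 are.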

Lindernia pyxidaria [6] = assay: as above; conditions: 120 g/10a; treatment seven days after sowing in flooded paddy pot; assessed 14 days after treatment
Summary of the method: as §2

Monochoria vaginalis [7] = assay: as above; conditions: 120 g/10a; treatment seven days after sowing in flooded paddy pot; assessed 14 days after treatment
Summary of the method: as §2

Scirpus juncoides [8] = assay: as above; conditions: 120 g/10a; treatment seven days after sowing in flooded paddy pot; assessed 14 days after treatment
Summary of the method: as §2

SMILES | Weed suppression rate (%) Echinochloa crus-galli (Echinochloa crus-galli [1]) | Weed suppression rate (%) Lindemia pyxidaria (Lindernia pyxidaria [2]) | Weed suppression rate (%) Monochoria vaginalis (Monochoria vaginalis [3]) | Weed suppression rate (%) Scirpus juncoides (Scirpus juncoides [4]) | Weed suppression rate (%) Echinochloa crus-galli (Echinochloa crus-galli [5]) | Weed suppression rate (%) Lindemia pyxidaria (Lindernia pyxidaria [6]) | Weed suppression rate (%) Monochoria vaginalis (Monochoria vaginalis [7]) | Weed suppression rate (%) Scirpus juncoides (Scirpus juncoides [8])
CC(C)N(C(=O)n1cnn(S(=O)(=O)c2ccccc2Cl)c1=O)c1cccc(F)c1F [Compound 11-511] | 100% | 100% | 90% | 100% | 100% | 80% | 100% | 100%
CC(C)N(C(=O)n1cnn(S(=O)(=O)c2ccc(Cl)cc2)c1=O)c1ccc(Cl)cn1 [Compound 11-612] | 100% | 100% | 70% | 70% | 80% | 90% | 70% | 90%
CC(C)N(C(=O)n1cnn(S(=O)(=O)c2ccccc2)c1=O)c1ccc(Cl)cc1 [Compound 11-361] | 90% | 80% | 80% | 90% | 90% | 80% | 80% | 90%
CN(C(=O)n1cnn(S(=O)(=O)c2cccs2)c1=O)c1ccc(F)cc1F [Compound 11-1147] | 100% | 100% | 70% | 70% | 100% | 70% | 90% | 100%
CC(C)N(C(=O)n1cnn(S(=O)(=O)c2cccc(F)c2)c1=O)c1c(F)cc(F)cc1F [Compound 11-442] | 100% | 80% | 70% | 80% | 100% | 80% | 90% | 80%
CC(C)N(C(=O)n1cnn(S(=O)(=O)c2cccc(F)c2)c1=O)c1c(F)c(F)cc(F)c1F [Compound 11-443] | 80% | 70% | 70% | 100% | 70% | 70% | 70% | 100%
CC(C)N(C(=O)n1cnn(S(=O)(=O)c2ccccc2F)c1=O)c1ccccc1F [Compound 11-392] | 90% | 80% | 80% | 90% | 90% | 80% | 80% | 90%
Cc1ccc(S(=O)(=O)n2ncn(C(=O)N(c3ccccc3F)C(C)C)c2=O)cc1 [Compound 11-627] | 90% | 80% | 80% | 90% | 90% | 80% | 80% | 90%
CC(C)N(C(=O)n1cnn(S(=O)(=O)N(C)C)c1=O)c1ccccc1F [Compound 11-1054] | 90% | 80% | 80% | 90% | 90% | 80% | 80% | 90%
COc1ccc(S(=O)(=O)n2ncn(C(=O)N(c3c(F)cccc3F)C(C)C)c2=O)cc1 [Compound 11-1151] | 100% | 100% | 70% | 80% | 100% | 80% | 90% | 90%
Cc1ccc(N(C(=O)n2cnn(S(=O)(=O)c3ccccc3F)c2=O)C(C)C)c(F)c1 [Compound 11-416] | 90% | 80% | 80% | 90% | 90% | 80% | 80% | 90%
CC(C)N(C(=O)n1cnn(S(C)(=O)=O)c1=O)c1ccccc1F [Compound 11-2] | 90% | 80% | 80% | 90% | 90% | 90% | 80% | 90%
CC(C)N(C(=O)n1cnn(S(=O)(=O)C2CC2)c1=O)c1ccc(Cl)cc1Br [Compound 11-210] | 90% | 90% | 80% | 90% | 90% | 80% | 80% | 90%
Cc1cc(C)c(S(=O)(=O)n2ncn(C(=O)N(C)c3ccc(F)cc3F)c2=O)c(C)c1 [Compound 11-1140] | 100% | 100% | 90% | 100% | 100% | 80% | 90% | 100%
CC(C)N(C(=O)n1cnn(S(=O)(=O)c2ccccc2Cl)c1=O)c1ccc(Cl)cn1 [Compound 11-536] | 90% | 90% | 60% | 60% | 90% | 80% | 60% | 90%
CC(C)N(C(=O)n1cnn(S(=O)(=O)c2ccc(C(C)(C)C)cc2)c1=O)c1ccc(F)c(F)c1F [Compound 11-685] | 90% | 100% | 100% | 60% | 80% | 60% | 70% | 60%
CC(C)N(C(=O)n1cnn(S(=O)(=O)C2CC2)c1=O)c1ccc(C(F)(F)F)cc1Cl [Compound 11-220] | 100% | 90% | 60% | 90% | 90% | 90% | 90% | 80%
CC(C)N(C(=O)n1cnn(S(=O)(=O)c2ccc(F)cc2)c1=O)c1cccc(F)c1F [Compound 11-474] | 100% | 100% | 100% | 100% | 100% | 100% | 90% | 100%
Cc1ccc(S(=O)(=O)n2ncn(C(=O)N(c3cccc(F)c3)C(C)C)c2=O)cc1 [Compound 11-628] | 90% | 80% | 80% | 90% | 90% | 80% | 80% | 90%
CC(C)N(C(=O)n1cnn(S(=O)(=O)c2cccc(F)c2)c1=O)c1ccc(F)c(F)c1F [Compound 11-441] | 100% | 90% | 60% | 100% | 100% | 60% | 80% | 100%
